Data: article PMC12493155, “A yeast-based in vivo assay complements in vitro and in silico approaches to characterize sterol-binding by Saccharomyces cerevisiae Lam/Ltc proteins” (The Journal of Biological Chemistry, 2025)
Structures can show the parent of a compound that is named as a salt. One block for each compound: values may come before it.

Experiments:
[1] = biological target: T1, Osh4 (Saccharomyces cerevisiae, UniProt P35844); test: Microscale thermophoresis (MST) ligand binding; settings: Osh4, pH 7.5, 50 nM protein
T1 construct: made in house; host or cells: E. coli BL21
Method: (§1) This polyhistidine-tagged protein is site-specific fluorescently labeled (RED-tris-NTA, green star). The labeled protein is incubated with varying concentrations of ligand, loaded into glass capillaries, the capillaries are locally heated with an infrared (IR) laser, generating a temperature gradient, and the rate of temperature-induced diffusion of the ligand-bound protein was recorded and plotted as a function of ligand concentration. B, sterol binding by Pry1, NPC2, Osh4, and STARD1 measured by MST. […] Binding by Pry1, Osh4 was assessed at pH 7.5, STARD1 at pH 8.5, and NPC2 binding affinity was determined at pH 5.5. […] Data shown in panelB represent the mean ± SD of three independent experiments. MST, microscale thermophoresis; NPC2, Niemann-Pick type C2; Pry, pathogen-related in yeast; STARD1, steroidogenic acute regulatory protein 1.
(§2) Purified proteins were fluorescently labeled using the RED-tris-NTA His tag protein labeling kit (NanoTemper Technologies) ([52]). […] Binding by Pry1, Osh4, and the StARkin domains was assessed at pH 7.5, STARD1 at pH 8.5, and NPC2 binding affinity was determined at pH 5.5.
(§3) Samples were centrifuged for 5 min at 15,000g at 4 °C and loaded into standard MST capillaries. The dissociation constant Kd was determined by plotting the fraction of ligand-bound protein against the logarithm of the ligand concentrations, using Prism software (GraphPad).

[2] = biological target: T2, Pry1 (Saccharomyces cerevisiae, UniProt P47032); test: Microscale thermophoresis (MST) ligand binding; settings: Pry1, pH 7.5, 50 nM protein
T2 construct: made in house; host or cells: E. coli BL21
T2 sequence (P47032 20-299): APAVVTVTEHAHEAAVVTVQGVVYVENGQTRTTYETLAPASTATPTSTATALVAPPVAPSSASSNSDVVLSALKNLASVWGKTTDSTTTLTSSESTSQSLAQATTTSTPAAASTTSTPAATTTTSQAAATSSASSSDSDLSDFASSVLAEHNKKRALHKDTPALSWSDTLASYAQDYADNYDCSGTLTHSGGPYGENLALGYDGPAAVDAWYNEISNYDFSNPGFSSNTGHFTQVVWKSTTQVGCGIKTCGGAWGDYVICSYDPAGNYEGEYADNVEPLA
Method: as §1, §2, §3

[3] = biological target: T3, STARD1 (Homo sapiens, UniProt P49675); test: Microscale thermophoresis (MST) ligand binding; settings: STARD1, pH 8.5, 50 nM protein
T3 construct: made in house; host or cells: E. coli BL21
T3 sequence (P49675 64-285): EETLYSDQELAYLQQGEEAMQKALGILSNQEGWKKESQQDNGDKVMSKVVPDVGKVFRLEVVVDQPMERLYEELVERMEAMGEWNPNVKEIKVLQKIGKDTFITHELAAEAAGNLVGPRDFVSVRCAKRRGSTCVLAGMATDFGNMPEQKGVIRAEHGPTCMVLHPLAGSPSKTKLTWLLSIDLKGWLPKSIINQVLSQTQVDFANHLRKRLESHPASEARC
Method: as §1, §2, §3

[4] = biological target: T4, Lam5 (ΔTMD) (Saccharomyces cerevisiae, UniProt P43560); test: Microscale thermophoresis (MST) ligand binding; settings: soluble Lam5 (ΔTMD)
T4 construct: Lam5 (1–633 aa), and Lam6 (1–621 aa); made in house; host or cells: E. coli BL21
T4 sequence (P43560 1-633): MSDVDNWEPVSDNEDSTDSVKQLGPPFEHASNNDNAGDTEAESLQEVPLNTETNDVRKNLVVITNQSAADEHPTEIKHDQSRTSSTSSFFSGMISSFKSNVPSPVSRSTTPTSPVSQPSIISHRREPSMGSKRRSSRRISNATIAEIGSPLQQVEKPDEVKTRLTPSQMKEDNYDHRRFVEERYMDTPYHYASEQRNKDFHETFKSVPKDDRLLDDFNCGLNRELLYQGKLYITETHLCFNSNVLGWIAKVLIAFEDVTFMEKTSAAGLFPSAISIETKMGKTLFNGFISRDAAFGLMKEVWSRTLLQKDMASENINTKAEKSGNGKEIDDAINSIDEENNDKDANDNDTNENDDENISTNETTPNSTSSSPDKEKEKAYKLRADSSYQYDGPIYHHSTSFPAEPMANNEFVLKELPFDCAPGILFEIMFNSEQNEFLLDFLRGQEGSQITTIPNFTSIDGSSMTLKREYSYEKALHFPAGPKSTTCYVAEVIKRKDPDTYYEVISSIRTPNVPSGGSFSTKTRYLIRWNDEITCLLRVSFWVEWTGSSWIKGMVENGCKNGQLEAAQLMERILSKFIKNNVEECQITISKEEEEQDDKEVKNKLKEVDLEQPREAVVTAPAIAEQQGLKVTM
Description: (§4) To corroborate these in vivo findings, we expressed soluble versions (ΔTMD) of Lam5 and Lam6 as polyhistidine-tagged proteins and assessed their sterol binding capacity using MST.

[5] = biological target: T5, Lam6 (ΔTMD) (Saccharomyces cerevisiae, UniProt Q08001); test: Microscale thermophoresis (MST) ligand binding; settings: soluble Lam6 (ΔTMD)
T5 construct: Lam5 (1–633 aa), and Lam6 (1–621 aa); made in house; host or cells: E. coli BL21
T5 sequence (Q08001 1-621): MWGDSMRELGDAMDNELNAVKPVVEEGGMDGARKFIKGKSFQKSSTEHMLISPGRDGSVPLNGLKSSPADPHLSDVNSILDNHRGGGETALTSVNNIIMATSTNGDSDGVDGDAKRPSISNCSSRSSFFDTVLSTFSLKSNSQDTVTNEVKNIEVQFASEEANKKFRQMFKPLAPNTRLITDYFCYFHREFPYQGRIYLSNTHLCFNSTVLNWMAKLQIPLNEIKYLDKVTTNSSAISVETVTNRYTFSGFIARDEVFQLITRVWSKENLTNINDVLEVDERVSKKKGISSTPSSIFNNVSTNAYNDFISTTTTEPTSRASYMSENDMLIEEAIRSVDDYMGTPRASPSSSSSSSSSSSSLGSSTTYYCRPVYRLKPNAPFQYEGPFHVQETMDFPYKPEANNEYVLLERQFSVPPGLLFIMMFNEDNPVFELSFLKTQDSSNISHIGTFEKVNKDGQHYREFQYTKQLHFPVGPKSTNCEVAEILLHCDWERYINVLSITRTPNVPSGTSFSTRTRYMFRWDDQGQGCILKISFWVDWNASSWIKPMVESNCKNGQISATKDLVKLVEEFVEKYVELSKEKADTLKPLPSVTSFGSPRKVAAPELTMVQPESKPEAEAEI
Description: as §4

[6] = biological target: T6, Lam4^StARkin1 (Saccharomyces cerevisiae, UniProt P38800); test: Microscale thermophoresis (MST) ligand binding; settings: Lam4^StARkin1, pH 7.5
T6 construct: both StARkin domains of Lam4 (StARkin1, 758–930 aa, 20.3 kDa); made in house; host or cells: E. coli BL21
T6 sequence (P38800 758-930): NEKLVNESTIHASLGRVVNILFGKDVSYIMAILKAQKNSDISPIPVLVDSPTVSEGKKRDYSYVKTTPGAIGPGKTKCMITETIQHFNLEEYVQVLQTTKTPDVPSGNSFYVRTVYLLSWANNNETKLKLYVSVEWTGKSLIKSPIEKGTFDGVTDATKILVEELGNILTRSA
Description: (§5) To further characterize these domains, we expressed and purified Ysp1^StARkin, Sip3^StARkin, Lam4^StARkin1, and Lam4^StARkin2 from bacterial cells and assessed their sterol-binding affinities using MST.

[7] = biological target: T7, Lam4^StARkin2 (Saccharomyces cerevisiae, UniProt P38800); test: Microscale thermophoresis (MST) ligand binding; settings: Lam4^StARkin2, pH 7.5
T7 construct: StARkin2, 967–1139 aa, 34.6 kDa; made in house; host or cells: E. coli BL21
T7 sequence (P38800 967-1139): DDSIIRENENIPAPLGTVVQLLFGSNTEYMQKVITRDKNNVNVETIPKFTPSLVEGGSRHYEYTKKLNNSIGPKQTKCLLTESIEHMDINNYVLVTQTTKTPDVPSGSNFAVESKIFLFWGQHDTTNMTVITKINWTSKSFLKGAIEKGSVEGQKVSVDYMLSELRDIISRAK
Description: as §5

[8] = biological target: T8, Ysp1^StARkin (Saccharomyces cerevisiae, UniProt P38851); test: Microscale thermophoresis (MST) ligand binding; settings: pH 7.5
T8 construct: Ysp1^StARkin (765–978 aa, 26.9 kDa); made in house; host or cells: E. coli BL21
T8 sequence (P38851 765-978): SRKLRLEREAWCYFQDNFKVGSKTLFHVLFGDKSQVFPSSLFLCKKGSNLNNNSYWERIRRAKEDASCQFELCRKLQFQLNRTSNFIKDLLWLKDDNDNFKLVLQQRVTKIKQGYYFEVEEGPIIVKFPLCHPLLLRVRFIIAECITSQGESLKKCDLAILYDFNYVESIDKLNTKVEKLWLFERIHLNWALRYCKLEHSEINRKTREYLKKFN
Description: as §5

[9] = biological target: T9, Sip3^StARkin (Saccharomyces cerevisiae, UniProt P38717); test: biochemical; type: binding
T9 construct: Sip3^StARkin (733–1002 aa, 32.5 kDa); made in house; host or cells: Lactococcus lactis DML1
T9 sequence (P38717 733-1002): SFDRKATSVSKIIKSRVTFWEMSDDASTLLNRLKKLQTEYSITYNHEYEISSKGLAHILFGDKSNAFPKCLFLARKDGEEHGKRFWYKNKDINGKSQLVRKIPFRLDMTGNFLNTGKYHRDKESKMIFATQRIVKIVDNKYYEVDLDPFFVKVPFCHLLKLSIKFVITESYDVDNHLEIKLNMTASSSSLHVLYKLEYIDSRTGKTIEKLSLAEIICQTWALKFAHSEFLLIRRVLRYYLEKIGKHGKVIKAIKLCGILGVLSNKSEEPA
Method: as §5, §2, §3

[10] = biological target: T10, NPC2 (Homo sapiens, UniProt P61916); test: In vitro radioligand binding assay with [3H]-cholesterol; settings: NPC2, pH 5.5, 100 pmol protein
T10 construct: made in house; host or cells: E. coli
T10 sequence (P61916 20-151): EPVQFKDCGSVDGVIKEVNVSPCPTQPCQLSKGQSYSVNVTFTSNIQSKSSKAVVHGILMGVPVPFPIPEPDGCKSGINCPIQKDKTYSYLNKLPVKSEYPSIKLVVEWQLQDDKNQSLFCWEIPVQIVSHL
Description: (§6) To validate these in vivo findings with independent in vitro approaches, Pry1, NPC2, Osh4, and STARD1 were expressed as C terminally polyhistidine-tagged proteins in Escherichia coli and purified using Ni^2+-NTA agarose beads. […] Protein-bound radioligand was separated from unbound ligand by absorption to an ion-exchange matrix ([13], [51]) (Fig. 2A).
(§7) Schematic representation of the workflow of the in vitro lipid binding assay. Purified proteins (blue, 100 pmol), different concentrations of radiolabeled [^3H]-cholesterol (green, 0–400 pmol) are incubated together to allow binding. Proteins were separated from unbound ligand by adsorption to an ion exchange matrix (gray), followed by washing steps. The protein-bound ligand is then eluted and quantified by liquid scintillation counting. Nonspecific binding is assessed in parallel by performing the assay in the absence of protein.
(§8) The in vitro radioligand binding assay was performed essentially as previously described ([13], [39]). Purified proteins (100 pmol) were incubated with 100 to 400 pmol of [^3H]-cholesterol (1 mCi/ml, specific activity 50 Ci/mmol; American Radiolabeled Chemicals, Inc), in binding buffer for 1 h at 30 °C. The pH of the binding buffer was adjusted based on the isoelectric point of the protein: for Pry1 and Osh4, 20 mM Tris (pH 7.5), 30 mM NaCl; for STARD1, the same buffer at pH 8.5; and for NPC2, 20 mM potassium acetate (pH 5.5), 30 mM NaCl.
(§9) Proteins were then separated from unbound ligand by adsorption to SP Sepharose (GE Healthcare) beads for NPC2, and to Q Sepharose beads (GE Healthcare) beads for all other proteins. Beads were washed and proteins were eluted with binding buffer containing 1 M NaCl. Protein-bound radioligand was quantified by scintillation counting. Ion exchange beads without protein were used to define nonspecific binding. Data were analyzed using Prism software (GraphPad) and are presented as the mean ± SD from three independent experiments.

[11] = biological target: T1, Osh4; test: as above; settings: Osh4, pH 7.5, 100 pmol protein
Description: as §6, §7, §8, §9

[12] = biological target: T2, Pry1; test: as above; settings: Pry1, pH 7.5, 100 pmol protein
Description: as §6, §7, §8, §9

[13] = biological target: T11, StARkin domain of Lam6 (Saccharomyces cerevisiae, UniProt Q08001); test: MST protein-liposome binding; settings: Fig. 7F, StARkin domain of Lam6, DOPC/DOPE 80/20 mol% liposomes
T11 construct: Lam6^StARkin (401–579 aa, 22 kDa); made in house; host or cells: Lactococcus lactis DML1
T11 sequence (Q08001 401-579): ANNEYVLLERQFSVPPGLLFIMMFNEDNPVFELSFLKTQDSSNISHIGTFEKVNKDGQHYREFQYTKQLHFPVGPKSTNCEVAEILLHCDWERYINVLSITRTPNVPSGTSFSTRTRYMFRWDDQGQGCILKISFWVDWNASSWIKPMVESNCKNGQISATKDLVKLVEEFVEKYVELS
Method: To test whether the GRAM domain of Lam6 could function as a coincidence detector recognizing both PS and ergosterol simultaneously, as observed with the GRAM domain of Aster-B/GRAM1b, we assessed liposome binding by isolated GRAM and StARkin domains ([58], [60]).
Lipids were dried from chloroform stock solutions using a rotary evaporator or under a gentle nitrogen gas stream. The dried lipid film was resuspended in 1 ml liposome buffer (25 mM Tris (pH 7.5), 50 mM NaCl) to a final concentration of 2 mM phospholipids. The phospholipid suspension was then subjected to ten freeze-thaw cycles, alternating between liquid nitrogen and a 55 °C water bath.
The resulting multilamellar liposomes were extruded nineteen times through a polycarbonate filter of 0.8 μm pore size to generate large unilamellar vesicles.

SMILES: CC(C)CCC[C@@H](C)[C@H]1CC[C@H]2[C@@H]3CC=C4C[C@@H](OS(=O)(=O)O)CC[C@]4(C)[C@H]3CC[C@]12C [cholesterol sulfate]
- Kd [1]: 1690 nM
- Kd [2]: 1750 nM
- Kd [3]: 64 nM
- Kd [4]: 290 nM
- Kd [5]: 90 nM
- Kd [6]: 71 nM
- Kd [7]: 340 nM
- Kd [8]: 47 nM
- Kd [9]: 530 nM

- Kd [10]: 1600 nM
- Kd [11]: 2300 nM
- Kd [12]: 2400 nM
SMILES: CC(C)CCC[C@@H](C)[C@H]1CC[C@H]2[C@@H]3CC=C4C[C@@H](O)CC[C@]4(C)[C@H]3CC[C@]12C [cholesterol]

SMILES: CC(C)[C@@H](C)/C=C/[C@@H](C)[C@H]1CC[C@H]2C3=CC=C4C[C@@H](O)CC[C@]4(C)[C@H]3CC[C@]12C [ergosterol]
- Kd [13]: 8600 ± 3400 nM
